Laboratory results as given in ChEMBL document CHEMBL1201862, “PubChem BioAssay data set” (2004).
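Tested at 5 concentrations; 48 h exposure; 96-well plates; endpoints linearly interpolated, else capped at highest concentration. The concentration for 50% growth inhibition is given as GI50.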 Activity calls are given as the source filed them. Cut-off read from the data, not from the text of the source: active = GI50 up to about 1.1 µM and inactive = higher.

Legend:
Assay in all cases: NCI anticancer screen, dose series, 48 h
[1] = system: DLD-1
[2] = system: XF498
[3] = system: DMS-114
[4] = system: KM-20L2
[5] = system: HOP-18
[6] = system: M19-MEL
[7] = system: RXF 631
[8] = system: LXFL 529
[9] = system: SNB-78

For O=C(Nc1cc(Cl)ccc1Cl)c1cc2cccc(Br)c2oc1=O, the GI50 [1] was > 100 µM (inactive), the GI50 [2] was 21.9 µM (inactive) and the GI50 [3] was > 100 µM (inactive). The GI50 [4] was > 100 µM (inactive), the GI50 [5] was > 100 µM (inactive) and the GI50 [6] was > 100 µM (inactive).

In the case of CCCCCC(=O)OC[n+]1ccc2c(C)c3[nH]c4ccc(OC)cc4c3c(C)c2c1, the GI50 [7] is reported as 0.429 µM (active), the GI50 [1] is reported as 0.137 µM (active) and the GI50 [8] is reported as 0.366 µM (active). For the same compound, the GI50 [3] was 0.628 µM (active), the GI50 [4] was > 100 µM (inactive) and the GI50 [9] was 0.449 µM (active).

In the case of O=C1CCC(=O)c2cc(Br)ccc2N1, the GI50 [7] is reported as > 100 µM (inactive), the GI50 [1] is reported as > 100 µM (inactive) and the GI50 [2] is reported as > 100 µM (inactive). For the same compound, the GI50 [8] was > 100 µM (inactive), the GI50 [3] was > 90.6 µM (inactive) and the GI50 [4] was > 100 µM (inactive). The GI50 [5] was > 100 µM (inactive), the GI50 [9] was > 100 µM (inactive) and the GI50 [6] was > 70.5 µM (inactive).

In the case of CCCCNC(=S)OCCC(C)CCCC(C)C (stereo not given), the GI50 [1] is reported as > 100 µM (inactive), the GI50 [2] is reported as > 100 µM (inactive) and the GI50 [8] is reported as > 100 µM (inactive). The GI50 [3] was > 100 µM (inactive), the GI50 [4] was > 100 µM (inactive) and the GI50 [5] was > 100 µM (inactive). For the same compound, the GI50 [9] was > 100 µM (inactive) and the GI50 [6] was > 100 µM (inactive).

CCN(CC)CC(=O)NC1c2ccccc2Oc2ccccc21 was tested, and the GI50 [1] was > 100 µM (inactive), the GI50 [2] was > 100 µM (inactive) and the GI50 [8] was > 100 µM (inactive). The GI50 [3] was > 100 µM (inactive), the GI50 [4] was > 100 µM (inactive) and the GI50 [9] was > 100 µM (inactive). For the same compound, the GI50 [6] was > 100 µM (inactive).

With N#CCCN(c1ccc(/C=C2\N=C(Cc3ccccc3)OC2=O)cc1)S(=O)(=O)c1ccccc1 the GI50 [1] was > 100 µM (inactive), the GI50 [2] was > 100 µM (inactive) and the GI50 [8] was > 100 µM (inactive). The GI50 [3] was > 100 µM (inactive), the GI50 [4] was > 100 µM (inactive) and the GI50 [9] was > 100 µM (inactive).

O=C(CCC/C(CC(=O)c1ccc(Br)cc1)=N\O)Nc1ccccc1 was tested, and the GI50 [1] was 96.4 µM (inactive), the GI50 [2] was > 100 µM (inactive) and the GI50 [8] was > 100 µM (inactive). For the same compound, the GI50 [3] was 25.5 µM (inactive), the GI50 [4] was 91.4 µM (inactive) and the GI50 [5] was > 100 µM (inactive). For the same compound, the GI50 [9] was > 100 µM (inactive) and the GI50 [6] was > 100 µM (inactive).

For CC(=O)NC(CCCCN(Cc1ccccc1)C(=O)N(CCCl)N=O)C(=O)NCc1ccccc1 (stereo not given), the GI50 [1] was > 47.9 µM (inactive), the GI50 [2] was > 34.4 µM (inactive) and the GI50 [8] was > 100 µM (inactive). The GI50 [3] was > 100 µM (inactive), the GI50 [4] was > 52.8 µM (inactive) and the GI50 [5] was 25.9 µM (inactive). The GI50 [9] was > 100 µM (inactive) and the GI50 [6] was > 67.3 µM (inactive).

In the case of CC1CCC2c3c([nH]c4ccccc34)C3C(=O)N(c4ccccc4)C(=O)C3C2C1 (stereo not given), the GI50 [7] is reported as 89.1 µM (inactive), the GI50 [1] is reported as > 250 µM (inactive) and the GI50 [2] is reported as 1.82 µM (inactive). For the same compound, the GI50 [8] was > 250 µM (inactive), the GI50 [3] was 45.5 µM (inactive) and the GI50 [4] was > 250 µM (inactive). For the same compound, the GI50 [5] was 18.9 µM (inactive), the GI50 [9] was 10.6 µM (inactive) and the GI50 [6] was > 250 µM (inactive).

O=C(CN1CCN(c2cccc(Cl)c2)CC1)N1CCc2c([nH]c3ccccc23)C1c1cccnc1 (stereo not given) was tested, and the GI50 [7] was 7.31 µM (inactive), the GI50 [1] was 7.31 µM (inactive) and the GI50 [2] was 12.2 µM (inactive). The GI50 [3] was 4.25 µM (inactive), the GI50 [4] was 3 µM (inactive) and the GI50 [5] was 33.2 µM (inactive). The GI50 [9] was 18.3 µM (inactive) and the GI50 [6] was 7.76 µM (inactive).

In the case of C/C(CC(=O)Nc1cccc([N+](=O)[O-])c1)=N\NC(=O)C[n+]1ccccc1, the GI50 [1] is reported as > 100 µM (inactive), the GI50 [2] is reported as > 100 µM (inactive) and the GI50 [8] is reported as > 100 µM (inactive). For the same compound, the GI50 [3] was > 100 µM (inactive), the GI50 [4] was > 100 µM (inactive) and the GI50 [9] was > 100 µM (inactive). For the same compound, the GI50 [6] was > 100 µM (inactive).

With COc1ccc(-n2/c(=N/C(=S)N(C)C)ss/c2=N\C(=S)N(C)C)cc1 the GI50 [3] was 7.36 µM (inactive), the GI50 [4] was 27.7 µM (inactive) and the GI50 [9] was 39.4 µM (inactive). The GI50 [6] was 7.43 µM (inactive).

CC(=O)Nc1ccc(/C=C/C(=O)c2sc(-c3cccnc3)nc2C)cc1 was tested, and the GI50 [1] was > 100 µM (inactive), the GI50 [3] was > 100 µM (inactive) and the GI50 [4] was > 100 µM (inactive). The GI50 [5] was > 100 µM (inactive), the GI50 [9] was > 100 µM (inactive) and the GI50 [6] was > 100 µM (inactive).

With CSc1cccc(-n2c3nc(=O)n(C)c(=O)c-3nc3ccccc32)c1 the GI50 [1] was 14 µM (inactive), the GI50 [2] was 3.51 µM (inactive) and the GI50 [8] was 13.3 µM (inactive). For the same compound, the GI50 [3] was 3.27 µM (inactive), the GI50 [4] was 3.54 µM (inactive) and the GI50 [5] was 13.2 µM (inactive). The GI50 [9] was 19.4 µM (inactive) and the GI50 [6] was 2.07 µM (inactive).
